Measured values reported in PubChem BioAssay (NCI).
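All cell lines were grown in 96-well plates and treated with compound for 48 hours. GI50 is the concentration that inhibits growth by half. TGI is the concentration that stops growth completely.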

How the values were obtained:
Assay in all cases: inhibition of tumour cell growth, NCI panel, 48 h
MDA-MB-435 = test system: MDA-MB-435
SF-268 CNS = test system: SF-268 CNS
HOP-62 NSCLC = test system: HOP-62 NSCLC
K-562 leukemia = test system: K-562 leukemia
A549 NSCLC = test system: A549 NSCLC
HL-60(TB) leukemia = test system: HL-60(TB) leukemia
SK-OV-3 ovarian = test system: SK-OV-3 ovarian
UACC-257 melanoma = test system: UACC-257 melanoma
SN12C renal = test system: SN12C renal
UO-31 renal = test system: UO-31 renal

Row | SMILES | TGI (MDA-MB-435) [µM] | TGI (SF-268 CNS) [µM] | TGI (HOP-62 NSCLC) [µM] | TGI (K-562 leukemia) [µM] | TGI (A549 NSCLC) [µM] | TGI (HL-60(TB) leukemia) [µM] | TGI (SK-OV-3 ovarian) [µM] | TGI (UACC-257 melanoma) [µM] | TGI (SN12C renal) [µM] | GI50 (SF-268 CNS) [µM] | GI50 (HOP-62 NSCLC) [µM] | GI50 (A549 NSCLC) [µM] | GI50 (HL-60(TB) leukemia) [µM] | GI50 (SK-OV-3 ovarian) [µM] | GI50 (UACC-257 melanoma) [µM] | GI50 (UO-31 renal) [µM] | TGI (UO-31 renal) [µM]
1 | COc1ccc(C2=C(OC(=O)N(C)C)c3cccn3-c3cc(Cl)ccc3S2)cc1 | > 10 | > 10 | > 10 | > 10 | > 10 | > 10 | > 10 | > 10 | > 10 | – | – | – | – | – | – | – | –
2 | CCCCCCOc1ccc(C(=N)N(CCCC)CCCC)c2ccccc12 | – | 3.53 | 3.34 | – | 3.31 | 3.43 | 2.96 | 3.06 | – | 1.62 | 1.7 | 1.76 | 1.81 | 1.57 | 1.6 | 1.14 | 2.55
3 | C/C(=C\Cc1cc(O)ccc1O)CCc1c(C)cc(O)c(C=O)c1C | – | 46 | – | > 100 | > 100 | > 100 | > 100 | – | 92.4 | – | – | – | – | – | – | – | 78.1
4 | COc1cccc(CN(C(=O)/C=C\Sc2ccccc2)C(C)(C)C)c1 | > 100 | – | > 100 | – | > 100 | > 100 | > 100 | > 100 | > 100 | – | – | – | – | – | – | – | > 100
5 | CNc1ccc(Cl)cc1S(=O)(=O)c1ccccc1[N+](=O)[O-] | – | > 100 | > 100 | > 100 | > 100 | > 100 | > 100 | – | > 100 | – | – | – | – | – | – | – | > 100
6 | COC(=O)/C=C/c1ccc2c(c1)CC1(Cc3ccccc3C1)C2 | > 100 | – | > 100 | > 100 | > 100 | 67.3 | > 100 | > 100 | > 100 | – | – | – | – | – | – | – | > 100
7 | Cc1ccc(S(=O)(=O)N/N=C2\C3CC4CC(C3)C2C4)cc1 (configuration not stated) | > 100 | – | > 100 | > 100 | > 100 | > 100 | > 100 | > 100 | > 100 | – | – | – | – | – | – | – | > 100
8 | CCOC1=C2NC(Cc3ccc(F)cc3)=NC2C(=O)c2ccccc21 (configuration not stated) | – | – | > 100 | > 100 | – | 22.2 | > 100 | 50.8 | – | – | – | – | – | – | – | – | 25.1
9 | NS(=O)(=O)c1cc(S(N)(=O)=O)c(NC(=O)N(c2ccccc2)c2ccccc2)c(Cl)c1Cl | 67.2 | > 100 | – | 81.4 | > 100 | 52 | 65.3 | 27.6 | 57.6 | – | – | – | – | – | – | – | 94.1
10 | O=[N+]([O-])c1ccc(NS(=O)(=O)C(F)(F)F)cc1 | > 100 | > 100 | > 100 | – | > 100 | > 100 | > 100 | > 100 | > 100 | – | – | – | – | – | – | – | > 100
11 | CC(=O)CC1(C)OC(N)=C(C#N)C1(C#N)C#N (configuration not stated) | > 100 | > 100 | > 100 | – | > 100 | – | > 100 | > 100 | > 100 | – | – | – | – | – | – | – | > 100
12 | CCN(CC)CCN(C)CCc1ccc(Br)cc1 | > 100 | > 100 | > 100 | > 100 | > 100 | – | > 100 | > 100 | > 100 | – | – | – | – | – | – | – | > 100
13 | Cc1cc(S(=O)(=O)O)c(NC(=O)c2oc3cc(O)ccc3c(=O)c2C)cc1Cl | > 100 | > 100 | > 100 | > 100 | > 100 | – | > 100 | > 100 | > 100 | – | – | – | – | – | – | – | > 100
14 | COC(=O)n1c(C[P+](c2ccccc2)(c2ccccc2)c2ccccc2)cc2ccccc21 | – | 16.1 | 4.57 | 16.2 | 12.4 | 6.12 | 3.59 | – | 11.7 | – | – | – | – | – | – | – | –
15 | CCOC(=O)/C(C#N)=C/N(CC)/N=C/c1ccccc1 | > 100 | > 100 | – | > 100 | > 100 | > 100 | > 100 | > 100 | > 100 | – | – | – | – | – | – | – | > 100
16 | CO[P@]1(=O)O[C@@H](c2ccccc2)[C@H](O)[C@@]1(O)c1ccccc1 | > 100 | – | – | > 100 | > 100 | > 100 | > 100 | > 100 | > 100 | – | – | – | – | – | – | – | > 100
17 | O=C1CC2(CCNCC2)C(=O)N1N1CCOCC1 | – | > 100 | > 100 | > 100 | > 100 | > 100 | > 100 | > 100 | > 100 | – | – | – | – | – | – | – | > 100
18 | O=[N+]([O-])/C=C/c1cn(CCCCCn2cc(/C=C/[N+](=O)[O-])c3ccccc32)c2ccccc12 | – | 15.6 | 10.6 | 3.7 | 11.7 | 2.5 | > 93.5 | 13.8 | > 21.5 | – | – | – | – | – | – | – | 9.78
19 | CCOC(=O)C1CCCCc2sc(N)c(C#N)c21 (configuration not stated) | – | – | > 100 | > 100 | > 100 | > 100 | – | > 100 | > 100 | – | – | – | – | – | – | – | > 100
20 | O=S1(=O)OCCOS(=O)(=O)C1Cc1nc2ccccc2[nH]1 | > 100 | – | > 100 | > 100 | > 100 | 88.4 | – | > 100 | > 100 | – | – | – | – | – | – | – | > 100
21 | CC12CC(c3ccccc3O1)C(C(=O)Nc1cccc(F)c1)C(=O)N2 (configuration not stated) | > 100 | > 100 | > 100 | > 100 | > 100 | > 100 | > 100 | > 100 | – | – | – | – | – | – | – | – | 24.9
22 | CC(C)(C)c1ccc(-c2nnc(-c3cc(C#N)cc(-c4nnc(-c5ccc(C(C)(C)C)cc5)o4)c3)o2)cc1 | > 100 | > 100 | > 100 | > 100 | > 100 | – | > 100 | > 100 | > 100 | – | – | – | – | – | – | – | > 100
23 | COC(=O)CC(NC(=O)OCc1ccccc1)C(C(=O)OCc1ccccc1)C1(C)OCCO1 (configuration not stated) | – | > 100 | > 100 | > 100 | > 100 | 62.6 | – | > 100 | > 100 | – | – | – | – | – | – | – | 61.1
